Laboratory results as given in ChEMBL document CHEMBL5335830, “Unusual Sesquiterpenes from Streptomyces olindensis DAUFPE 5622” (J Nat Prod, 2024).
Calls of active or inactive are those of the source.

Columns and labels:
Bacillus subtilis = experiment: Antimicrobial activity against Bacillus subtilis; assay type: functional, organism-based
Candida albicans = experiment: Antifungal activity against Candida albicans; assay type: functional, organism-based
Escherichia coli = experiment: Antimicrobial activity against Escherichia coli; assay type: functional, organism-based
[1] = tested on: Colon adenocarcinoma cell line; experiment: Cytotoxicity against human Colon adenocarcinoma cells; assay type: functional, cell-based

Measured: Activity

CC1=CC(=O)C[C@H]2[C@@H](C)[C@@](C)(CO)CC[C@]12C
inactive: Bacillus subtilis | Candida albicans | Escherichia coli | [1]
